The test system of this experiment is rats with scopolamine-induced cognitive impairment. Nature of the experiment: Novel object recognition test using rats with scopolamine-induced cognitive impairment. It counts as in vivo, rat (Long Evans). To be noted: for percentage of exploration of the novel object in T2: scopolamine 0.7 mg/kg s.c., mean±standard error. From the text:
[Test Example 1] Novel Object Recognition Test Using Rats with Scopolamine-Induced Cognitive Impairment
Acetylcholine nervous system disorder has been reported in Alzheimer's disease (Whitehouse et al., Science, 1982, vol. 215, p. 1237), and scopolamine-administered animals are utilizable as an animal model for Alzheimer's disease. Scopolamine is a muscarine receptor inhibitor which blocks acetylcholine nervous system transmission.
6-week-old male Long Evans rats (Institute for Animal Reproduction) were subjected to the test. A habituation process to the experimental procedure was carried out once per day for 2 days prior to the test. In the habituation process, a vehicle was administered to the rats, and then the rats were placed in an empty test apparatus (40 cm×30 cm×45 cm height) and allowed to explore for 3 minutes, and after then placed in a waiting chamber (13 cm×30 cm×45 cm height) for about 1 minute, they were returned to the empty test apparatus again and left for 5 minutes.
An acquisition trial (T1) was carried out on the day of the test. Compound (I) was orally administered 2 hours before T1. Memantine hydrochloride was orally administered 1 hour before T1. Scopolamine (Wako Pure Chemical Industries, Ltd.) was subcutaneously administered 30 minutes before T1 at a dose of 0.7 mg/kg. In T1, the rats were habituated to the empty test apparatus for 3 minutes and then placed in the waiting chamber. After setting two identical objects in the test apparatus, the rats were returned into the test apparatus again and allowed to freely explore the two identical objects for 5 minutes. The rats were then returned into their rearing cages. After 2 hours, a retention trial (T2) was carried out. The rats were placed in the empty test apparatus for 3 minutes for habituation, and were then transferred into the waiting chamber. After setting an object used in T1 (“familiar” object) and an object not used in T1 (“novel” object) in the test apparatus, the rats were again returned into the test apparatus and allowed to freely explore these objects for 3 minutes. The objects were wiped with a wet wipe impregnated with ethanol after each experiment so as to leave no trace of odor. The behaviors of the rats during T1 and T2 were recorded by a digital video camera, and the total exploration time for each object was manually measured using a stopwatch. Exploratory behavior was defined as the behavior in which the rat brings its nose within 2 cm of the object and directs its nose toward the object.
In the novel object recognition test, the percentage of exploration of the novel object in T2 is considered to be an index for amnesia, reflecting discrimination between the familiar object and the novel object. The percentage of exploration of the novel object was calculated by the following formula. The percentage of exploration of the novel object (%)=N/(N+F)×100 F: time spent in exploring the familiar object N: time spent in exploring the novel object
Rats whose total time spent in exploring the objects during T1 or T2 was 10 seconds or less or rats whose percentage of the time spent in exploring either of the objects during T1 was not less than 70% or not more than 30% of the total exploration time were excluded from the data analysis.
The results were expressed as mean±standard error. The difference between the normal control group untreated with scopolamine and the disease control group treated with scopolamine was analyzed by an unpaired t-test (significant difference: *). The difference between the disease control group and the single drug-treated group was analyzed by Dunnett-type multiple comparison test (significant difference: #). The difference between the combined treatment group and the single drug-treated group was analyzed by an unpaired t-test (significant difference: ※). A value of p<0.05 was judged to be a statistically significant difference. Statistical analysis was conducted using GraphPad Prism version 5.04 or 6.02.

As to `COc1ncc(C)c(-c2ccc3c(c2)[nH]c(=O)c2cnn([C@H]4CCOC4)c23)c1C` [Compound (I), (S)-7-(2-methoxy-3,5-dimethylpyridin-4-yl)-1-(tetrahydrofuran-3-yl)-1H-pyrazolo[4,3-c]quinoline-4(5H)-one], the “percentage of exploration of the novel object in T2” value (“percentage of exploration … in T2” below) (Compound (I) 0.3 mg/kg orally 2 hours before T1) stood at 58.7 ± 3.2%; the “percentage of exploration … in T2” value (Compound (I) 1 mg/kg orally 2 hours before T1) is given as 59.9 ± 3.4%; the “percentage of exploration … in T2” value (Compound (I) 3.3 mg/kg orally 2 hours before T1, # significant vs disease control) was 68.5 ± 2.0# %; the “percentage of exploration … in T2” value (Compound (I) 10 mg/kg orally 2 hours before T1, # significant vs disease control) is recorded as 68.5 ± 1.6# %. The “ameliorative effect on the percentage of exploration of the novel object (significance vs disease control)” value is, setting by setting: (compound (I) 1 mg/kg (Table 1)) “did not exhibit a significant effect”; (compound (I) 3.3 mg/kg (Table 2)) “significant ameliorative effect”.

As to `CC12CC3CC(C)(C1)CC(N)(C3)C2` [Memantine, memantine], the “percentage of exploration … in T2” value was 58.1 ± 2.4% (Memantine 1 mg/kg orally 1 hour before T1); 68.9 ± 4.0# % (Memantine 3 mg/kg orally 1 hour before T1, # significant vs disease control); 59.9 ± 3.8% (Memantine 10 mg/kg orally 1 hour before T1). The “ameliorative effect on the percentage of exploration of the novel object (significance vs disease control)” value runs as follows: (memantine hydrochloride 1 mg/kg alone (Table 4)) “no significant ameliorative effect”; (memantine hydrochloride 3 mg/kg (Table 3)) “significant ameliorative effect”.

Source of the values: patent publication US11147803B2, “Dementia therapeutic agent combining pyrazoloquinoline derivative and memantine” (Eisai R&D Management Co., Ltd., priority 2017, dated 2021).
